Test results reported in PMC12736008, “New Dimethylpyridine-3-Carboxamide Derivatives as MMP-13 Inhibitors with Anticancer Activity” (Molecules, 2025).

What was measured:
[1] = target: T1, human serum albumin (HSA) (Homo sapiens, UniProt P02768); test: Fluorescence quenching titration of human serum albumin; type: binding; conditions: for ΔG^0 / ΔH^0 / ΔS^0: HSA complex formation; for ΔG^0: one value for 297-308 K; for ΔH^0 / ΔS^0: van't Hoff; for KSV·10^4: PBS pH 7.4
T1 construct: purchased Sigma-Aldrich
Description: In the human albumin, the amino acid residue Trp214 in subdomain IIA is of particular significance in structural studies. Subdomain IIA is responsible for binding many drugs and endogenous compounds [37]. To investigate the interactions between HSA and the tested compounds, fluorescence spectroscopy was conducted. […] The Stern–Volmer constant with inner filter correction was applied, based on changes in absorbance and in the fluorescence intensity of excited Trp214 residues located in the protein binding pocket:(1) F0/Fcorr=1+kqτQ=1+KSV[Q] (2) Fcorr=Fobs10^(Aex+Aem)/2 where F0 is maximum fluorescence intensities protein without a quencher, Fcorr is the corrected florescence intensities, kq is the quenching rate constant of the molecules, τ is the average lifetime of the molecule (for biomolecules τ = 10^−8 s), [Q] is the concentration of quencher, Ksv is the Stern-Volmer constant, Fobs is the steady-state fluorescence intensity at the maximum wavelength with the quencher, Aex and Aem are the absorbance at excitation and emission wavelengths, respectively. The quenching rate constants (kq) are higher than 2 × 10^10 dm^3 mol^−1 s^−1; therefore, the quenching mechanism is static and supports complex formation.
The binding parameters were evaluated by a double logarithm regression curve by Equation (3):(3) logF0−F/F=logKb[…] where F0 is the maximum fluorescence intensity of a protein without a quencher, F is the maximum fluorescence intensity of the protein after a quencher addition, Kb is the binding constant, [Q] is the molar concentration of the quencher, and n is the binding stoichiometry.
The compounds studied can be arranged in accordance with the value of Kb, the strength of their interaction with HSA. In this ranking, 3d is the highest ranked, followed by 3c, 3b, and 3g in descending order of compatibility. Then, using Equations (4), and van’t Hoff function (5), the thermodynamic parameters of complex formation were determined and collected in Table 5, and Figure 10:(4) logKb=−ΔH^0/RT+[…] (5) ΔG^0=ΔH^0−TΔS^0=−RTlnKb where R is the gas constant (8.314 J mol^−1 K^−1), T is temperature, Kb is the binding constant, ΔH^0 is enthalpy, ΔS^0 is entropy, and ΔG^0 is free energy change.
To perform the UV-Vis and fluorometric titration measurements, all compounds were dissolved in dimethyl sulfoxide (DMSO) at a concentration of 1⸱10^−3 mol/dm^3. A 0.01 mol/dm^3 phosphate-buffered saline (PBS) solution with a pH of 7.4 (Sigma-Aldrich Chemie GmbH, St. Louis, MO, USA) was used to prepare a 1 × 10^−6 mol/dm^3 solution of human serum albumin (HSA) (Sigma-Aldrich Chemie GmbH, St. Louis, MO, USA). The fluorescence study was performed on a Cary Eclipse 500 spectrophotometer (Agilent, Santa Clara, CA, USA). The fluorometric spectra were recorded in a quartz cuvette with a 10 mm path length over an emission range of 280–400 nm, with an excitation wavelength of 280 nm and a PMT voltage of 560 V. The UV-Vis spectra were recorded on a Jasco V-750 spectrophotometer (Jasco, Tokyo, Japan) with the following parameters: a wavelength range of 190–400 nm, a data interval of 0.1 nm, a scan speed of 400 nm/min, and automatic baseline correction. Quartz cuvettes with an optical path length of 10 mm were used. […] The titrations of the protein solution with the studied compounds were performed in 0.5 molar increments, from 0.0 to 2.0 followed by 1.0 increments up to a final molar ratio of 11.0.

HSA/Dansyl-L-Gly = target: T2, HSA/Dansyl-L-Gly (Homo sapiens, UniProt P02768); test: Marker displacement from HSA/Dansyl-L-Gly complex (Sudlow site I); type: binding; conditions: room temperature
T2 construct: purchased Sigma-Aldrich
Text: The human serum albumin (HSA) has two main drug-binding sites, known as Sudlow site I and Sudlow site II, located in subdomains IIA and IIIA of the albumin structure, respectively. […] In addition to these main sites, HSA has the capacity to bind ligands in other regions, including histidine residues, the N-terminus of the molecule, and metal binding sites. However, it is most common for drugs to bind to Sudlow I and Sudlow II. In order to study binding to a specific site in the protein, fluorescent markers, Dansyl-L-Gly and Dansyl-L-Phe, were used. The Dansyl-L-Gly interacts with Sudllow I, while the Dansyl-L-Phe prefers Sudllow II [41, 42]. The tested compounds were added in portions to the solution that contained the HSA/marker complex, and the fluorescence spectrum was recorded (Figure 11 and Figure 12). The percentage of compound exchange in the albumin pocket was calculated using Equation (6):(6) displacement % =F^0 −F /F^0 where F^0 is the maximum fluorescence intensity of HSA/Dansyl-L-Gly complex, and F is the maximum fluorescence intensity after a quencher addition. The calculated data were collected in Table 6. It was observed that only compound 3b displaces from the Dansyl-L-Gly binding site, as indicated by a decrease in fluorescence intensity with increasing concentration of this derivative, but only to approximately 8%. […] The band intensity increases slightly, which may be due to the dilution of the solution. […] This, in turn, results in a reduction in the number of collisions and reabsorptions, thereby enhancing the efficiency of fluorescence emission. […]
Solutions of Dansyl-L-Phe (Chem-Norm Biotech, Wuhan, China) and Dansyl-L-Gly (Sigma-Aldrich, Tokyo, Japan) were prepared by dissolving them separately in ethanol to a final concentration of 1·10^−3 mol/dm^3. […] Spectra were recorded at room temperature using a Cary Eclipse 500 spectrophotometer (Agilent, Santa Clara, CA, USA) with an excitation wavelength of 350 nm, and an emission range of 410–670 nm and the PMT voltages were (V) 700 and 650 for Dansyl-L-Gly and Dansyl-L-Phe, respectively. […]

T1 sequence (P02768 25-609): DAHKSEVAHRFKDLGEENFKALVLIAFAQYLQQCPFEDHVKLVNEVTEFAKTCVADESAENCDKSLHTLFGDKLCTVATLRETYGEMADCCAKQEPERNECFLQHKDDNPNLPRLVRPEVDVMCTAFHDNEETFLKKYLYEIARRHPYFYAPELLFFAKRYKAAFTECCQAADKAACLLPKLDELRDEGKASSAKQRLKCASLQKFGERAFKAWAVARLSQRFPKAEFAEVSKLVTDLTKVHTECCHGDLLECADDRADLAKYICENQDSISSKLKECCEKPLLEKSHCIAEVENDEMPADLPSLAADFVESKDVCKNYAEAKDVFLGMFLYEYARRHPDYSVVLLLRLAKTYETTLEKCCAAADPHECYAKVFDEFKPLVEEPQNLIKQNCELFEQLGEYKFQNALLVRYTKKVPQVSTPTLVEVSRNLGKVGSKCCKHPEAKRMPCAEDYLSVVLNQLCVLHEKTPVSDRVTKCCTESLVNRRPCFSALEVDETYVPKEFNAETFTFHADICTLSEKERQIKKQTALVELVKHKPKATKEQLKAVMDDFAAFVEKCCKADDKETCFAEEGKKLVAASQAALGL
T2 sequence (P02768 25-609): as above

SMILES	ΔG^0 [1] [kcal/mol]	ΔH^0 [1] [kcal/mol]	ΔS^0 [1] [J·mol^−1·K^−1]	kq·10^12 ([1]; T 297 K)	n (binding stoichiometry) ([1]; T 297 K)	KSV·10^4 ([1]; T 297 K)	kq·10^12 ([1]; T 303 K)	n (binding stoichiometry) ([1]; T 303 K)	KSV·10^4 ([1]; T 303 K)	kq·10^12 ([1]; T 308 K)	n (binding stoichiometry) ([1]; T 308 K)	KSV·10^4 ([1]; T 308 K)	Marker Displacement Percentage HSA/Dansyl-L-Gly (HSA/Dansyl-L-Gly)
Cc1cc(C)c(C(=O)NCC(=O)NCc2ccccc2)c(S)n1 [Compound 3g, 4,6-dimethyl-N-[2-(benzylamino)-2-oxoethyl]-2-sulfanylpyridine-3-carboxamide]	-2.12	-44.077	−579.14	0.87 10^12 dm^3·mol^−1·s^−1	0.60	0.87 10^4 dm^3·mol^−1	0.72 10^12 dm^3·mol^−1·s^−1	0.54	0.72 10^4 dm^3·mol^−1	0.63 10^12 dm^3·mol^−1·s^−1	0.42	0.63 10^4 dm^3·mol^−1	no quenching occurs at all
Cc1cc(C)c(C(=O)NCC(=O)NCc2ccc(Cl)cc2)c(S)n1 [Compound 3c, N-{2-[(4-chlorobenzyl)amino]-2-oxoethyl}-4,6-dimethyl-2-sulfanylpyridine-3-carboxamide]	-4.319	-45.696	−571.09	2.69 10^12 dm^3·mol^−1·s^−1	0.84	2.69 10^4 dm^3·mol^−1	2.34 10^12 dm^3·mol^−1·s^−1	0.74	2.34 10^4 dm^3·mol^−1	2.07 10^12 dm^3·mol^−1·s^−1	0.65	2.07 10^4 dm^3·mol^−1	no quenching occurs at all
Cc1cc(C)c(C(=O)NCC(=O)NCc2ccccc2Cl)c(S)n1 [Compound 3d, N-{2-[(2-chlorobenzyl)amino]-2-oxoethyl}-4,6-dimethyl-2-sulfanylpyridine-3-carboxamide]	-4.156	-45.471	−570.21	2.51 10^12 dm^3·mol^−1·s^−1	0.82	2.51 10^4 dm^3·mol^−1	2.13 10^12 dm^3·mol^−1·s^−1	0.73	2.13 10^4 dm^3·mol^−1	1.88 10^12 dm^3·mol^−1·s^−1	0.63	1.88 10^4 dm^3·mol^−1	no quenching occurs at all
Cc1cc(C)c(C(=O)NCC(=O)NCc2ccc(Oc3ccccc3)cc2)c(S)n1 [Compound 3b, 4,6-dimethyl-N-{2-[(4-phenoxybenzyl)amino]-2-oxoethyl}-2-sulfanylpyridine-3-carboxamide]	-3.176	-96.119	−1282.70	1.21 10^12 dm^3·mol^−1·s^−1	0.89	1.21 10^4 dm^3·mol^−1	1.06 10^12 dm^3·mol^−1·s^−1	0.60	1.06 10^4 dm^3·mol^−1	0.86 10^12 dm^3·mol^−1·s^−1	0.44	0.86 10^4 dm^3·mol^−1	
